Measured values reported in patent publication US9974782B2, “Phosphodiesterase inhibitors and uses thereof” (THE TRUSTEES OF COLUMBIA UNIVERSITY IN THE CITY OF NEW YORK, priority 2008, dated 2018).
Entries after “also recorded” stand apart in the source; their conditions may differ.

What was measured:
[1] = mouse, in vivo, po
Experimental: Timeline: 24 h-7 days. In the timeline, no fatal effects were observed.
Dosage: • Single dose at 500 mg/kg, i.p. • Single dose at 1000 mg/kg, i.p. • Single dose at 2000 mg/kg, p.o.

mice infused with Aβ42 = assay: Contextual fear memory in mice infused with Aβ42; assay type: in vivo, mouse; details: 3 or 10 mg/Kg, p.o., immediately after training
Experimental: Our next goal was to check if YF012403 can attenuate synaptic and cognitive dysfunction in APP/PS1 mice. We induced LTP or contextual fear memory in the presence of oligomeric Aβ42, or vehicle [S18]. In the LTP experiments 200 nM Aβ42 or vehicle were perfused through the bath solution for 20 min prior to the application of the θ-burst. In the behavioral experiments 200 nM Aβ42 or vehicle were bilaterally infused 15 min prior to the foot shock into dorsal hippocampus of the animal that had been pre-implanted with a cannula the week before. Aβ reduced LTP and contextual fear memory (FIG. 49). However, YF012403 (50 nM, for 10 min prior to the θ-burst in the LTP experiments; 3 or 10 mg/Kg, p.o., immediately after training in the behavioral experiments) ameliorated the electrophysiological and behavioral deficits (FIG. 49).

APP/PS1 mice = assay: Electrophysiological analysis (BST, LTP) of slices from mice previously treated i.p.; assay type: in vivo, mouse
Experimental: To add depth to the analysis of the functional changes that underlie the striking effects of sildenafil on APP/PS1 mice behavioral performance, synaptic function in hippocampi from the same mice was examined. […] The drug was administered either acutely or for 1 course of 3 week treatment. […] This dose yields concentrations of 2.5 μM cGMP in the hippocampus^[…]. […] Radial-arm water-maze (RAWM) was performed for 3 weeks. Then, the animals were sacrificed for electrophysiological recordings. To decide the time of administration of sildenafil in the acute experiments, a series of studies was performed in which the inhibitor was injected i.p. at 5 min before the electric shock or at 5 min before the first acquisition trial with the radial arm water maze. […] Thus, all the behavioral experiments on the acute effects of sildenafil reported in the result section were performed with injection after the training. Animals were sacrificed by cervical dislocation followed by decapitation. Hippocampi were quickly removed. Transverse hippocampal slices (400 μm) were cut and recorded according to standard procedures^[…]. For example, following cutting hippocampal slices were transferred to a recording chamber where they were maintained at 29° C. and perfused with artificial cerebrospinal fluid (ACSF) continuously bubbled with 95% O2 and 5% CO2. […] CA1 fEPSPs were recorded by placing both the stimulating and the recording electrodes in CA1 stratum radiatum. BST was assayed either by plotting the peak amplitude of the fiber volley against the slope of the fEPSP, or by plotting the stimulus voltages against slopes of fEPSP. For LTP experiments, a 15 min baseline was recorded every min at an intensity that evokes a response 35% of the maximum evoked response. […] Responses were recorded for 2 hrs after tetanization and measured as field-excitatory-post-synaptic potential (fEPSP) slope expressed as percentage of baseline. The results were expressed as mean±Standard Error Mean (SEM).

J20 mice = assay: Fear conditioning and RAWM in J20 mice; assay type: in vivo, mouse
[2] = test system: human Aβ40 and Aβ42 levels; assay: Determination of Aβ levels (ELISA of cerebral cortex)
[3] = 3 mg/kg, treated at 3 months, tested at 6-8 months
[4] = 6-8 month-old APP/PS1, 3 mg/Kg i.p. for 3 weeks at 3 months of age
[5] = 6-8 month-old WT, 3 mg/Kg i.p. for 3 weeks at 3 months of age
[6] = treated at 3 months, tested at 6-8 months, APP/PS1
[7] = 3-month-old APP/PS1, daily injections for 3 weeks
[8] = APP/PS1 at 7-10 months, injections for 3 weeks at 3 months

For `COc1ccc(CNc2c(CO)cnc3c(C4CC4)cc(C#N)cc23)cc1Cl` [YF012403, 4-(3-chloro-4-methoxybenzylamino)-8-cyclopropyl-3-(hydroxymethyl)-quinoline-6-carbonitrile], the “safe dose in acute toxicity test” value [1] was “up to 2 g/kg” and the “effect on contextual fear memory deficit in Aβ42-infused mice in words” value (mice infused with Aβ42) was “ameliorates the contextual fear memory deficit; also recorded: ameliorated”.

In the case of `CCCc1nn(C)c2c(=O)[nH]c(-c3cc(S(=O)(=O)N4CCN(C)CC4)ccc3OCC)nc12` [sildenafil, 5-[2-ethoxy-5-(4-methyl-1-piperazinylsulphonyl)phenyl]-1-methyl-3-n-propyl-1,6-dihydro-7H-pyrazolo[4,3-d]pyrimidin-7-one], the “minimum time needed for a positive effect on BST” value (APP/PS1 mice; [3]) is reported as 2 weeks, the “minimum time needed for a positive effect on LTP” value (APP/PS1 mice; [3]) is reported as 2 weeks and the “BST, fEPSP slope” value (APP/PS1 mice; [4]) is reported as 1.03±0.12 V/sec. For the same molecule, the “BST, fEPSP slope as % of vehicle-treated APP/PS1 mice” value (APP/PS1 mice; [4]) was roughly 160%, the “LTP as % of sildenafil-treated WT mice” value (APP/PS1 mice; [4]) was roughly 100% and the “LTP, % of baseline at 120 min” value (APP/PS1 mice; [4]) was 233.81±30.47%. For the same molecule, the “BST, fEPSP slope” value (APP/PS1 mice; [5]) was 1.01±0.12 V/sec, the “BST, slope of input-output curve as % of vehicle-treated WT mice” value (APP/PS1 mice; [5]) was roughly 94% and the “LTP as % of vehicle-treated mice” value (APP/PS1 mice; [5]) was roughly 112%. The “LTP, % of baseline” value (APP/PS1 mice; [5]) was 234.67±17.19%, the “minimum concentration needed to improve BST” value (APP/PS1 mice; [6]) was 3 mg/kg and the “minimum concentration needed to improve LTP” value (APP/PS1 mice; [6]) was 3 mg/kg. The “effect on contextual learning in words” value (J20 mice; 3 mg/kg i.p. immediately after training) was “improved contextual learning”, the “effect on spatial working memory in words” value (J20 mice; daily injection after training for 3 weeks) was “improved spatial working memory” and the “minimum time needed for a positive effect on Aβ40 levels” value ([2]; 3 mg/kg at 3 months of age, measured at 7-8 months) was 3 weeks. For the same molecule, the “minimum time needed for a positive effect on Aβ40” value ([2]; 3 mg/kg, measured immediately after treatment) was 2 weeks, the “minimum effective dose that decreases Aβ40 and Aβ42 levels” value ([2]; 3-month-old APP/PS1) was 3 mg/kg and the “Aβ40 as % of vehicle-treated APP/PS1 mice” value [2, 7] was roughly 64%. For the same molecule, the Aβ40 level [2, 7] was 1.71±0.22 ng/mg cortex, the “Aβ42 as % of vehicle-treated APP/PS1 mice” value [2, 7] was roughly 80% and the Aβ42 level [2, 7] was 3.56±0.23 ng/mg cortex. For the same molecule, the “effect on Aβ levels in words” value ([2]; APP/PS1, 1.5 mg/kg for 3 weeks) was “did not decrease Aβ levels”, the “Aβ40 as % of vehicle-treated APP/PS1 mice” value [2, 8] was roughly 65% and the Aβ40 level [2, 8] was 49.59±7.93 ng/mg cortex. For the same molecule, the “Aβ42 as % of vehicle-treated APP/PS1 mice” value [2, 8] was roughly 73%, the Aβ42 level [2, 8] was 32.55±3.27 ng/mg cortex and the “minimum effective dose that decreases Aβ40 and Aβ42 levels” value ([2]; treated at 3 months, measured at 7-10 months) was 3 mg/kg.
